In patent US11634436B2, “Pyridine lactam compounds and methods of use thereof” (Genentech, Inc., priority 2018, dated 2023):

Target: T1, human RIP1 kinase domain (2-375) (Homo sapiens, UniProt Q13546)
T1 construct: Purified human RIP1 kinase domain (2-375) (50 nM) derived from a baculovirus-infected insect cell expression system; made in house; host or cells: baculovirus-infected insect cells
T1 sequence (Q13546 2-375): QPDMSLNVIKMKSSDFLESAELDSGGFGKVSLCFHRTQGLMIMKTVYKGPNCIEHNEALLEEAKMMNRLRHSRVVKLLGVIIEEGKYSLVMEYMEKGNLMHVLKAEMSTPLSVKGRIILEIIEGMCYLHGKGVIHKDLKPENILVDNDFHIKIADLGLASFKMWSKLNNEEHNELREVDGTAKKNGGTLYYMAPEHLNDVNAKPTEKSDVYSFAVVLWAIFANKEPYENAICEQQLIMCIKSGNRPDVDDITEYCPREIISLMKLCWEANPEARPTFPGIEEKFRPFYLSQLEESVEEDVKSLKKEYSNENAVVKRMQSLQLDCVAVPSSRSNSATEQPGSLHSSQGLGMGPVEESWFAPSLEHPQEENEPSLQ
Assay: RIP1 kinase inhibition biochemical assay (Transcreener ADP, fluorescence polarization)
Conditions: tight-binding apparent inhibition constant (Ki app, Morrison equation); 50 nM enzyme, 50 uM ATP, 2 hours incubation
Description: RIP1 Kinase Inhibition Assays (Biochemical Assay)
The compounds of the present invention were tested for their capacity to inhibit RIP1K activity as described below.
Enzyme assay: The ability of the receptor interacting protein kinase (RIPK1) to catalyze the hydrolysis of adenosine-5′-triphosphate (ATP) is monitored using the Transcreener ADP (adenosine-5′-diphosphate) assay (BellBrook Labs). Purified human RIP1 kinase domain (2-375) (50 nM) derived from a baculovirus-infected insect cell expression system is incubated with test compounds for 2 hours in 50 mM Hepes buffer (pH 7.5) containing 30 mM MgCl2, 1 mM dithiothreitol, 50 uM ATP, 0.002% Brij-35, and 0.5% dimethyl sulfoxide (DMSO). Reactions are quenched by the addition of 1× Bell Brooks Stop buffer B (20 mM Hepes (ph7.5), 40 mM ethylenediaminetetraacetic acid and 0.02% Brij-35) containing an additional 12 mM EDTA and 55 ug/mL ADP2 antibody and 4 nM ADP-AlexaFluor® 633 tracer. The tracer bound to the antibody is displaced by the ADP generated during the RIP1K reaction, which causes a decrease in fluorescence polarization that is measured by laser excitation at 633 nm with a FP microplate reader M1000. Fractional activity was plotted against test article concentration. Using Genedata Screener software (Genedata; Base1, Switzerland), the data were fit to the tight-binding apparent inhibition constant (Ki^app) Morrison equation [Williams, J. W. and Morrison, J. F. (1979) The kinetics of reversible tight-binding inhibition. Methods Enzymol 63: 437-67]. The following equation was used to calculate fractional activity and Ki^app:
[formula] where [E]T and [I]T are the total concentrations of active enzyme and test article, respectively.
Exemplary compounds of the present invention are provided in Table 1 along with their physiochemical characterization and in vitro RIP1 kinase inhibitory activity data. “Method” in the first column of each table refers to the synthetic method(s) used to prepare each compound as shown in the Examples above. In certain examples, chiral column retention times (min) are provided for certain stereoisomers. Unless otherwise specified, the stereochemistry shown in each structure represents relative configuration of a single stereoisomer, and absolute configuration (i.e., “R” and/or “S”) is arbitrarily assigned. In some embodiments, where the Method is described to include the separation of stereoisomers, a single stereoisomer of a compound of Table 1 is provided.

For `CN1C(=O)[C@@H](NC(=O)c2ncc3cnn(C4CCCC4)c3n2)COc2cccnc21` [Example 9, 1-cyclopentyl-N-[(3S)-5-methyl-4-oxo-2,3-dihydropyrido[3,2-b][1,4]oxazepin-3-yl]pyrazolo [3,4-d]pyrimidine-6-carboxamide], the Ki was 11 nM.

Work on `CN1C(=O)[C@@H](NC(=O)c2cc3n(n2)[C@@H](c2ccccc2)C[C@H]3F)COc2ccccc21` (single isomer, unassigned) [Example 10] yielded a Ki of 5400 nM.

With `CCC(F)(F)n1ncc2cnc(C(=O)N[C@H]3COc4cccnc4N(C)C3=O)nc21` [Example 8, 1-(1,1-difluoropropyl)-N-[(3S)-5-methyl-4-oxo-2,3-dihydropyrido[3,2-b][1,4]oxazepin-3-yl]pyrazolo [3,4-d]pyrimidine-6-carboxamide] the Ki was 18 nM.

In the case of `[2H]C([2H])([2H])N1C(=O)[C@@H](NC(=O)c2cc3n(n2)CCO[C@H]3c2ccccc2)COc2cccnc21` [Example 7, (4S)-4-phenyl-N-[(3S)-4-oxo-5-(trideuteriomethyl)-2,3-dihydropyrido[3,2-b][1,4]oxazepin-3-yl]-6,7-dihydro-4H-pyrazolo[5,1-c][1,4]oxazine-2-carboxamide], the Ki is reported as 28 nM.

With `CN1C(=O)[C@@H](NC(=O)c2cc3n(n2)[C@H](c2ccccc2)C[C@@H]3F)COc2ccccc21` (single isomer, unassigned) [Example 11] the Ki was 4.4 nM.

`CN1C(=O)[C@@H](NC(=O)c2cc3n(n2)CCO[C@@H]3c2ccccc2F)COc2cccnc21` (single isomer, unassigned) [Example 4] gave a Ki of 950 nM.

`CN1C(=O)[C@@H](NC(=O)c2cc3n(n2)CCO[C@H]3c2ccccc2)COc2cccnc21` (single isomer, unassigned) [Example 5] gave a Ki of 19 nM.

In the case of `CC(C)n1ncc2cnc(C(=O)N[C@H]3COc4cccnc4N(C)C3=O)nc21` [Example 2, 1-isopropyl-N-[(3S)-5-methyl-4-oxo-2,3-dihydropyrido[3,2-b][1,4]oxazepin-3-yl]pyrazolo[3,4-d]pyrimidine-6-carboxamide], the Ki is reported as 14 nM.

Compound `CCC(F)(F)n1ncc2cnc(C(=O)N[C@H]3COc4cccnc4N(C)C3=O)cc21` [Example 12, 1-(1,1-difluoropropyl)-N-[(3S)-5-methyl-4-oxo-2,3-dihydropyrido[3,2-b][1,4]oxazepin-3-yl]pyrazolo [4,3-c]pyridine-6-carboxamide] has a Ki of 5 nM.

With `C[C@H]1Oc2cccnc2N(C)C(=O)[C@H]1NC(=O)c1cc2n(n1)CCO[C@H]2c1ccccc1` [Example 6, (4S)-4-phenyl-N-[(2R,3S)-2,5-dimethyl-4-oxo-2,3-dihydropyrido[3,2-b][1,4]oxazepin-3-yl]-6,7-dihydro-4H-pyrazolo[5,1-c][1,4]oxazine-2-carboxamide] the Ki was 7 nM.

In the case of `CN1C(=O)[C@@H](NC(=O)c2cc3n(n2)[C@H](c2ccccc2)C[C@@H]3F)COc2cccnc21` (single isomer, unassigned) [Example 1], the Ki is reported as 5.2 nM.

In the case of `CN1C(=O)[C@@H](NC(=O)c2cc3n(n2)CCO[C@H]3c2ccccc2F)COc2cccnc21` (single isomer, unassigned) [Example 3], the Ki is reported as 24 nM.
